{
  "source": "paper PMC5557574",
  "about": "(Critical Care, 2017)",
  "key": {"[1]": {"experiment": "Pharmacokinetics in septic shock patients, two-compartment population pharmacokinetic model", "assay_type": "in vivo, human", "conditions": "for Initial elimination half-life / Time to steady state / clearance / Vd / half-life: mean (SD), SD; for clearance / Vd / half-life: human, in vivo, intravenous; for clearance: read-out: Clearance (total systemic) (converted); for Vd: read-out: Steady state volume; for half-life: read-out: Terminal elimination half-life (converted)", "description": "Because the study drug infusion was administered according to need, the pharmacokinetic parameters steady-state concentration, total systemic clearance, distribution volume at steady state, and half-life were calculated by modeling using a two-compartment population pharmacokinetic model with random subject effects on clearance and distribution volume using WinNonlin®Pro (Pharsight Corp., Cary, NC, USA). Actual blood sampling time points were used for the calculations.\nData are generated by modelling the concentration data available from all subjects. Mean (SD)"}, "[2]": {"tested_on": "patients in early septic shock", "experiment": "Safety: treatment-emergent adverse events in the phase IIa trial", "assay_type": "in vivo, human", "description": "Secondary endpoints included pharmacodynamics, pharmacokinetics, safety (vital signs, central venous pressure, central venous oxygen saturation, electrocardiographic and cardiac function, respiratory function, clinical chemistry, hematology, hemostasis, and urinalysis), organ dysfunction, an indirect measure of vascular leakage (i.e., fluid balance), and morbidity. Treatment-emergent adverse events (occurrence from start of study drug to 48 h after infusion was stopped) were collated and evaluated. Morbidity and organ dysfunction were evaluated by time course of Sequential Organ Failure Assessment (SOFA) scores; days alive and free of organ dysfunction (using SOFA); proportion of patients off all vasopressors; days alive and out of intensive care unit (ICU); days alive and free of vasopressors; corticosteroids for sepsis treatment, dialysis, or mechanical ventilation at days 7, 14, and 28; ICU and hospital (up to day 28) lengths of stay; and plasma C-reactive protein (CRP), tumor necrosis factor (TNF)-α, interleukin (IL)-6, IL-10, and IL-1ra levels."}, "healthy subjects": {"tested_on": "healthy subjects", "parameters": "method as in Ferring Pharmaceuticals A/S, unpublished data", "conditions": "30 healthy subjects, infusion rates up to 3.0 ng/kg/minute for 6 h; ref Ferring Pharmaceuticals A/S, unpublished data; cited from earlier work"}, "[3]": {"parameters": "method as in Ferring Pharmaceuticals, unpublished data", "conditions": "healthy subjects; ref Ferring Pharmaceuticals, unpublished data; cited from earlier work"}, "patients": {"tested_on": "patients", "conditions": "30 patients, infusion rates of 3.75 ng/kg/minute and higher; ref Ferring Pharmaceuticals A/S, unpublished data; cited from earlier work"}, "[4]": {"conditions": "cited from earlier work"}, "[5]": {"conditions": "Selepressin 2.5 ng/kg/minute (n = 19), possibly or probably related"}, "[6]": {"conditions": "Selepressin 3.75 ng/kg/minute (n = 2), possibly or probably related"}},
  "note": "Where two headings read alike, the source gives them in different places. Positions of bridges follow the written chain, without caps; N, C: chain ends. Non-standard residues stand in square brackets, D forms with d. Residues, ends and D or L forms follow the SMILES beside them. Orn(iPr) = CC(C)NCCC[C@H](N)C(=O)O; Aad = N[C@@H](CCCC(=O)O)C(=O)O",
  "data": [
    {"molecule": "CC[C@H](C)[C@@H]1NC(=O)[C@H](Cc2ccccc2)NC(=O)[C@@H](N)CSSC[C@@H](C(=O)N2CCC[C@H]2C(=O)N[C@@H](CCCNC(C)C)C(=O)NCC(N)=O)NC(=O)[C@H](CC(N)=O)NC(=O)[C@H](CCCC(N)=O)NC1=O", "note": "[selepressin] (H-CFI[Aad](NH2)NCP[Orn(iPr)]G-NH2; disulfide 1-6)", "values": [
      {"measurement": "Initial distribution/elimination phase half-life", "setting": "[1]", "value": "approximately 10 minutes"},
      {"measurement": "Initial elimination half-life", "setting": "[1]; 1.25 ng/kg.min, N=10, modelled", "value": "0.18 (0.09) h"},
      {"measurement": "Time to steady state", "setting": "[1]; 1.25 ng/kg.min, N=10, modelled", "value": "7.6 (2.8) h"},
      {"measurement": "Initial elimination half-life", "setting": "[1]; 2.5 ng/kg.min, N=17, modelled", "value": "0.17 (0.06) h"},
      {"measurement": "Time to steady state", "setting": "[1]; 2.5 ng/kg.min, N=17, modelled", "value": "7.0 (2.3) h"},
      {"measurement": "Terminal half-life", "setting": "[1]; both dose groups", "value": 2.5, "unit": "h"},
      {"measurement": "Time to steady-state concentration", "setting": "[1]; both infusion rates (1.25 and 2.5)", "value": "approximately 7 h"},
      {"measurement": "clearance", "setting": "[1]; 1.25 ng/kg.min, N=10, modelled", "value": 167, "unit": "mL/min"},
      {"measurement": "Vd", "setting": "[1]; 1.25 ng/kg.min, N=10, modelled", "value": 25.5, "unit": "L"},
      {"measurement": "half-life", "setting": "[1]; 1.25 ng/kg.min, N=10, modelled", "value": 2.5, "unit": "h"},
      {"measurement": "clearance", "setting": "[1]; 2.5 ng/kg.min, N=17, modelled", "value": 218, "unit": "mL/min"},
      {"measurement": "Vd", "setting": "[1]; 2.5 ng/kg.min, N=17, modelled", "value": 31.2, "unit": "L"},
      {"measurement": "half-life", "setting": "[1]; 2.5 ng/kg.min, N=17, modelled", "value": 2.7, "unit": "h"},
      {"measurement": "Any severe TEAE: E (events)", "setting": "[2]; 1.25 ng/kg.min N=10", "value": 8},
      {"measurement": "Any severe TEAE: N (%)", "setting": "[2]; 1.25 ng/kg.min N=10", "value": "3 (30)"},
      {"measurement": "Severe TEAE Acute respiratory distress syndrome: E (events)", "setting": "[2]; 1.25 ng/kg.min N=10", "value": 1},
      {"measurement": "Severe TEAE Acute respiratory distress syndrome: N (%)", "setting": "[2]; 1.25 ng/kg.min N=10", "value": "1 (10)"},
      {"measurement": "Severe TEAE Ascites: E (events)", "setting": "[2]; 1.25 ng/kg.min N=10", "value": 1},
      {"measurement": "Severe TEAE Ascites: N (%)", "setting": "[2]; 1.25 ng/kg.min N=10", "value": "1 (10)"},
      {"measurement": "Severe TEAE Cerebral hemorrhage: E (events)", "setting": "[2]; 1.25 ng/kg.min N=10", "value": 1},
      {"measurement": "Severe TEAE Cerebral hemorrhage: N (%)", "setting": "[2]; 1.25 ng/kg.min N=10", "value": "1 (10)"},
      {"measurement": "Severe TEAE Disseminated intravascular coagulation: E (events)", "setting": "[2]; 1.25 ng/kg.min N=10", "value": 1},
      {"measurement": "Severe TEAE Disseminated intravascular coagulation: N (%)", "setting": "[2]; 1.25 ng/kg.min N=10", "value": "1 (10)"},
      {"measurement": "Severe TEAE Hepatic failure: E (events)", "setting": "[2]; 1.25 ng/kg.min N=10", "value": 1},
      {"measurement": "Severe TEAE Hepatic failure: N (%)", "setting": "[2]; 1.25 ng/kg.min N=10", "value": "1 (10)"},
      {"measurement": "Severe TEAE Hyperkalemia: E (events)", "setting": "[2]; 1.25 ng/kg.min N=10", "value": 1},
      {"measurement": "Severe TEAE Hyperkalemia: N (%)", "setting": "[2]; 1.25 ng/kg.min N=10", "value": "1 (10)"},
      {"measurement": "Severe TEAE Mechanical ventilation complication: E (events)", "setting": "[2]; 1.25 ng/kg.min N=10", "value": 1},
      {"measurement": "Severe TEAE Mechanical ventilation complication: N (%)", "setting": "[2]; 1.25 ng/kg.min N=10", "value": "1 (10)"},
      {"measurement": "Severe TEAE Oliguria: E (events)", "setting": "[2]; 1.25 ng/kg.min N=10", "value": 1},
      {"measurement": "Severe TEAE Oliguria: N (%)", "setting": "[2]; 1.25 ng/kg.min N=10", "value": "1 (10)"},
      {"measurement": "Any severe TEAE: E (events)", "setting": "[2]; 2.5 ng/kg.min N=19", "value": 6},
      {"measurement": "Any severe TEAE: N (%)", "setting": "[2]; 2.5 ng/kg.min N=19", "value": "4 (21)"},
      {"measurement": "Severe TEAE Myocarditis: E (events)", "setting": "[2]; 2.5 ng/kg.min N=19", "value": 1},
      {"measurement": "Severe TEAE Myocarditis: N (%)", "setting": "[2]; 2.5 ng/kg.min N=19", "value": "1 (5)"},
      {"measurement": "Severe TEAE Peripheral ischemia: E (events)", "setting": "[2]; 2.5 ng/kg.min N=19", "value": 1},
      {"measurement": "Severe TEAE Peripheral ischemia: N (%)", "setting": "[2]; 2.5 ng/kg.min N=19", "value": "1 (5)"},
      {"measurement": "Severe TEAE Pneumothorax: E (events)", "setting": "[2]; 2.5 ng/kg.min N=19", "value": 1},
      {"measurement": "Severe TEAE Pneumothorax: N (%)", "setting": "[2]; 2.5 ng/kg.min N=19", "value": "1 (5)"},
      {"measurement": "Severe TEAE Respiratory distress: E (events)", "setting": "[2]; 2.5 ng/kg.min N=19", "value": 2},
      {"measurement": "Severe TEAE Respiratory distress: N (%)", "setting": "[2]; 2.5 ng/kg.min N=19", "value": "2 (11)"},
      {"measurement": "Severe TEAE Urinary bladder hemorrhage: E (events)", "setting": "[2]; 2.5 ng/kg.min N=19", "value": 1},
      {"measurement": "Severe TEAE Urinary bladder hemorrhage: N (%)", "setting": "[2]; 2.5 ng/kg.min N=19", "value": "1 (5)"},
      {"measurement": "Adverse drug reactions judged as serious", "setting": "[2]; 2.5 ng/kg/minute group, one patient", "value": "myocarditis and peripheral ischemia"},
      {"measurement": "Any severe TEAE: E (events)", "setting": "[2]; 3.75 ng/kg.min N=2", "value": 2},
      {"measurement": "Any severe TEAE: N (%)", "setting": "[2]; 3.75 ng/kg.min N=2", "value": "2 (100)"},
      {"measurement": "Severe TEAE Cardio-respiratory arrest: E (events)", "setting": "[2]; 3.75 ng/kg.min N=2", "value": 1},
      {"measurement": "Severe TEAE Cardio-respiratory arrest: N (%)", "setting": "[2]; 3.75 ng/kg.min N=2", "value": "1 (50)"},
      {"measurement": "Severe TEAE Myocardial ischemia: E (events)", "setting": "[2]; 3.75 ng/kg.min N=2", "value": 1},
      {"measurement": "Severe TEAE Myocardial ischemia: N (%)", "setting": "[2]; 3.75 ng/kg.min N=2", "value": "1 (50)"},
      {"measurement": "Adverse drug reactions judged as serious", "setting": "[2]; 3.75 ng/kg/minute group", "value": "myocardial ischemia"},
      {"measurement": "Cyanosis, treatment-related adverse drug reaction: No. of subjects (%)", "setting": "[2]; [5]", "value": "1 (5)"},
      {"measurement": "Cyanosis, treatment-related adverse drug reaction: events", "setting": "[2]; [5]", "value": 1},
      {"measurement": "Hypertension, treatment-related adverse drug reaction: No. of subjects (%)", "setting": "[2]; [5]", "value": "2 (11)"},
      {"measurement": "Hypertension, treatment-related adverse drug reaction: events", "setting": "[2]; [5]", "value": 2},
      {"measurement": "Myocarditis, treatment-related adverse drug reaction: No. of subjects (%)", "setting": "[2]; [5]", "value": "1 (5)"},
      {"measurement": "Myocarditis, treatment-related adverse drug reaction: events", "setting": "[2]; [5]", "value": 1},
      {"measurement": "Peripheral ischemia, treatment-related adverse drug reaction: No. of subjects (%)", "setting": "[2]; [5]", "value": "1 (5)"},
      {"measurement": "Peripheral ischemia, treatment-related adverse drug reaction: events", "setting": "[2]; [5]", "value": 1},
      {"measurement": "Myocardial ischemia, treatment-related adverse drug reaction: No. of subjects (%)", "setting": "[2]; [6]", "value": "1 (50)"},
      {"measurement": "Myocardial ischemia, treatment-related adverse drug reaction: events", "setting": "[2]; [6]", "value": 1},
      {"measurement": "Tolerability", "setting": "[2]; selepressin 2.5 ng/kg/minute, septic shock patients", "value": "well tolerated"},
      {"measurement": "Tolerability (treatment-emergent adverse events vs placebo)", "setting": "[2]; selepressin dose groups, septic shock patients", "value": "well tolerated"},
      {"measurement": "Deaths related to ischemic event(s) attributable to selepressin", "setting": "[2]; septic shock patients, all dose groups", "value": "no deaths"},
      {"measurement": "Safety and tolerability", "setting": "healthy subjects", "value": "safe and well tolerated"},
      {"measurement": "Terminal half-life", "setting": "[3]", "value": 1.5, "unit": "h"},
      {"measurement": "Safety", "setting": "patients", "value": "did not raise any safety concerns"},
      {"measurement": "Half-life (qualitative, compared with vasopressin and terlipressin)", "setting": "[4]", "value": "intermediate"}
    ]},
    {"molecule": "terlipressin [reference compound]", "values": [
      {"measurement": "Half-life (qualitative)", "setting": "[4]; in vivo", "value": "long half-life"}
    ]}
  ]
}
